Measured values: paper PMC11589570, “Critical assessment of LC3/GABARAP ligands used for degrader development and ligandability of LC3/GABARAP binding pockets” (Nature Communications, 2024)
“And” between values parts separate entries of the source, which are not always exact repeats. Equal values may be shown once.

How the values were obtained:
[1] = system: U2OS cells; assay: Cell growth assay (IncuCyte confluence over 72 h); assay type: cell-based; set-up: key to U2OS cell growth: % of well area covered by cells (confluence); conditions: listed as 10O5
Procedure, shortened: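 U2OS cells were grown in DMEM with 10% FBS for 24 h before treatment. Confluence was then tracked by IncuCyte phase imaging over 72 h and expressed as % of well area covered by cells. Each point is the average of three wells.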

[2] = molecular target: GABARAP (Homo sapiens, UniProt O95166); assay: FP assay with Cy5-labelled p62 LIR tracer (protein titration and tracer displacement); assay type: binding; conditions: for normalized FP signal, p62 LIR tracer displacement: GABARAP; for compound titration GABARAP (displacement curve, FP signal): two replicate columns per compound
Sequence of GABARAP (O95166 1-116): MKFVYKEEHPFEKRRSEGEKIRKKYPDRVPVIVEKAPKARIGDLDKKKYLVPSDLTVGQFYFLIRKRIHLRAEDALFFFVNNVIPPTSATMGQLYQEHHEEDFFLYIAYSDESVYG

[3] = molecular target: GABARAPL2 (Homo sapiens, UniProt P60520); assay: as above; conditions: GABARAPL2
Sequence of GABARAPL2 (P60520 whole entry): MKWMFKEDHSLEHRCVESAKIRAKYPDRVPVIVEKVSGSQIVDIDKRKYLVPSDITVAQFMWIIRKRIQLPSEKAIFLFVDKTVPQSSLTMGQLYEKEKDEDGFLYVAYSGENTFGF

[4] = log10 concentration [M] -3.82391, listed as 10O5
[5] = log10 concentration [M] -4.1549, listed as 10O5
[6] = log10 concentration [M] -4.60206, listed as 10O5
[7] = log10 concentration [M] -5, listed as 10O5
[8] = log10 concentration [M] -5.30103, listed as 10O5
[9] = log10 concentration [M] -5.69897, listed as 10O5
[10] = log10 concentration [M] -6.22185, listed as 10O5
[11] = log10 concentration [M] -6.69897, listed as 10O5
[12] = log10 concentration [M] -7.30103
[13] = log10 concentration [M] -7.79588, listed as 10O5
[14] = log10 concentration [M] -8.08092, listed as 10O5
[15] = log10 concentration [M] -6.22185
[16] = log10 concentration [M] -7.79588

## O=C1Nc2ccc(I)cc2C1=Cc1cc(Br)c(O)c(Br)c1 [compound 4]
[1]; 1 uM, time 6 h
  U2OS cell growth: 36.2035 and 30.6761 and 30.4629
[1]; 1 uM, time 8 h
  U2OS cell growth: 37.0589 and 28.0551 and 29.5538
[1]; 1 uM, time 10 h
  U2OS cell growth: 40.6527 and 32.3336 and 34.2928
[1]; 1 uM, time 12 h
  U2OS cell growth: 39.0418
[1]; 3 uM, time 0 h
  U2OS cell growth: 28.8395 and 29.1487 and 34.5356
[1]; 3 uM, time 2 h
  U2OS cell growth: 33.8786 and 32.6567 and 36.3335
[1]; 3 uM, time 4 h
  U2OS cell growth: 28.2335 and 26.3394 and 40.569
[1]; 3 uM, time 6 h
  U2OS cell growth: 37.1398 and 33.8156 and 39.1483
[1]; 3 uM, time 8 h
  U2OS cell growth: 34.9068 and 36.3207 and 39.5562
[1]; 3 uM, time 10 h
  U2OS cell growth: 41.312 and 42.3386 and 42.5694
[1]; 3 uM, time 12 h
  U2OS cell growth: 40.1427
[1]; 5 uM, time 0 h
  U2OS cell growth: 31.0558 and 26.3625 and 29.5321
[1]; 5 uM, time 2 h
  U2OS cell growth: 36.0354 and 28.3396 and 34.1005
[1]; 5 uM, time 4 h
  U2OS cell growth: 37.417 and 32.4374 and 40.4577
[1]; 5 uM, time 6 h
  U2OS cell growth: 38.4528 and 33.2156 and 39.1806
[1]; 5 uM, time 8 h
  U2OS cell growth: 37.3748 and 33.0274 and 39.2246
[1]; 5 uM, time 10 h
  U2OS cell growth: 41.1433 and 35.6497 and 45.4152
[1]; 10 uM, time 0 h
  U2OS cell growth: 20.3118 and 28.5412 and 26.4263
[1]; 10 uM, time 2 h
  U2OS cell growth: 23.006 and 27.9929 and 32.8968
[1]; 10 uM, time 4 h
  U2OS cell growth: 30.6648 and 35.9437 and 41.1141
[1]; 10 uM, time 6 h
  U2OS cell growth: 29.7401 and 38.8973 and 43.1309
[1]; 10 uM, time 8 h
  U2OS cell growth: 28.0658 and 36.5966 and 41.861
[1]; 10 uM, time 10 h
  U2OS cell growth: 30.9876 and 40.5217 and 49.4843
[2]; [4]
  normalized FP signal, p62 LIR tracer displacement: 56.3793 and 55.1724
[2]; [5]
  normalized FP signal, p62 LIR tracer displacement: 77.5862 and 81.7241
[2]; [6]
  normalized FP signal, p62 LIR tracer displacement: 88.4483 and 91.2069
[2]; [7]
  normalized FP signal, p62 LIR tracer displacement: 92.4138 and 92.2414
[2]; [8]
  normalized FP signal, p62 LIR tracer displacement: 93.9655 and 94.4828
[2]; [9]
  normalized FP signal, p62 LIR tracer displacement: 85.8621 and 86.7241
[2]; [10]
  normalized FP signal, p62 LIR tracer displacement: 92.2414 and 93.1034
[2]; [11]
  normalized FP signal, p62 LIR tracer displacement: 96.7241 and 92.4138
[2]; [12]
  normalized FP signal, p62 LIR tracer displacement: 97.069
  compound titration GABARAP (displacement curve, FP signal): 97.069
[2]; [13]
  normalized FP signal, p62 LIR tracer displacement: 90.8621 and 91.5517
[2]; [14]
  normalized FP signal, p62 LIR tracer displacement: 93.2759 and 95
[2]; log10 concentration [M] -3.82391
  compound titration GABARAP (displacement curve, FP signal): 56.3793 and 55.1724
[2]; log10 concentration [M] -4.1549
  compound titration GABARAP (displacement curve, FP signal): 77.5862 and 81.7241
[2]; log10 concentration [M] -4.60206
  compound titration GABARAP (displacement curve, FP signal): 88.4483 and 91.2069
[2]; log10 concentration [M] -5
  compound titration GABARAP (displacement curve, FP signal): 92.4138 and 92.2414
[2]; log10 concentration [M] -5.30103
  compound titration GABARAP (displacement curve, FP signal): 93.9655 and 94.4828
[2]; log10 concentration [M] -5.69897
  compound titration GABARAP (displacement curve, FP signal): 85.8621 and 86.7241
[2]; [15]
  compound titration GABARAP (displacement curve, FP signal): 92.2414 and 93.1034
[2]; log10 concentration [M] -6.69897
  compound titration GABARAP (displacement curve, FP signal): 96.7241 and 92.4138
[2]; [16]
  compound titration GABARAP (displacement curve, FP signal): 90.8621 and 91.5517
[2]; log10 concentration [M] -8.08092
  compound titration GABARAP (displacement curve, FP signal): 93.2759 and 95
[3]
  interaction in FP displacement assay: weak interaction
[3]; [4]
  normalized FP signal, p62 LIR tracer displacement: 56 and 50.4
[3]; [5]
  normalized FP signal, p62 LIR tracer displacement: 57.2 and 62.4
[3]; [6]
  normalized FP signal, p62 LIR tracer displacement: 87.2 and 100.4
[3]; [7]
  normalized FP signal, p62 LIR tracer displacement: 94.4 and 99.2
[3]; [8]
  normalized FP signal, p62 LIR tracer displacement: 99.6 and 96
[3]; [9]
  normalized FP signal, p62 LIR tracer displacement: 86.4 and 92.4
[3]; [15]
  normalized FP signal, p62 LIR tracer displacement: 100.4
[3]; [10]
  normalized FP signal, p62 LIR tracer displacement: 93.6
[3]; [11]
  normalized FP signal, p62 LIR tracer displacement: 96 and 103.2
[3]; log10 concentration [M] -7.30103, listed as 10O5
  normalized FP signal, p62 LIR tracer displacement: 102.4 and 90.4
[3]; [16]
  normalized FP signal, p62 LIR tracer displacement: 94.8
[3]; [13]
  normalized FP signal, p62 LIR tracer displacement: 95.2
[3]; [14]
  normalized FP signal, p62 LIR tracer displacement: 111.2 and 97.6
